# Results from patent US12409182B2, “Compositions and uses thereof for treatment of idiopathic preterm birth” (UNIVERSITY OF SOUTH FLORIDA, priority 2020, dated 2025).
# What was measured:
# [1] = system: FKBP51; settings: cultured primary human decidual cells; cited from earlier work
# [2] = system: Fkbp5+/+ and Fkbp5-/- mice; assay: Maternal dexamethasone or corticosterone injection, gestational length in Fkbp5+/+ or Fkbp5-/- mice; assay type: in vivo; settings: corticosterone 10 mg/kg s.c. daily E8 through E18, Fkbp5+/+ or Fkbp5-/- mice
# Procedure: Timing of Labor in Fkbp5^+/+ and Fkbp5^−/− Mice. To examine the effect of deletion of the Fkbp5 gene on birth timing, female Fkbp5^+/+ and Fkbp5^−/− mice (6-8 weeks-old) were mated with an adult Fkbp5^+/+ male (12-16 weeks old) by housing 1:1 for 4 h (9.00 am-1.00 pm). Pregnancy was confirmed by the presence of a vaginal plug or sperm in vaginal smears; gestational day (E) was designated at that time (10.00 am) as 0 dpc of pregnancy. The timing of delivery was monitored from E18 through E21 by observing mice every 4 h upon completion of delivery, and gestational length was calculated. Litter size, numbers of live and dead pups were recorded. Additionally, to determine whether there was a relative contribution of fetal genotype on birth timing, female Fkbp5^−/− mice were also mated with an adult male Fkbp5^−/− mice as described above and timing of labor was recorded.
# Maternal Dexamethasone or Corticosterone injection. Dexamethasone-21-phosphate disodium salt (DEX; Sigma-Aldrich, St. Louis, MO) suspended in sterile PBS was administered intraperitoneally at 200 μg/kg. Corticosterone (CORT; Sigma-Aldrich) was dissolved in ethyl alcohol and diluted in PBS before injection and administered subcutaneously at 10 mg/kg. […]
# [3] = system: Srd5a1 deficient mice; settings: Srd5a1 deficient mice (27% delivery rate without treatment); cited from earlier work
# [4] = system: FKBP51; assay: Dexamethasone-induced FKBP51 protein levels in decidual cell monolayers (immunoblot); assay type: cell-based; settings: confluent leukocyte-free term decidual cells, 10^-7 M Dex + compound, 24 h
# Procedure: Three endogenous biochemicals (CC #1, CC #2, CC #3), which exist in human blood/tissues were tested as potential inhibitors of FKBP51 expression/action and confirmed that dexamethasone-induced inhibits FKBP51 expression in decidual cell cultures by all three compounds (FIG. 1).
# [5] = system: maternal stress induced pregnant mice; assay: Maternal restraint stress induced preterm birth and fetal growth restriction in wild-type mice; assay type: in vivo; settings: for litter size: 0.5 mg/kg daily i.p. GD14 to GD18, maternal stress administered mice; for maternal stress induced fetal growth restriction (pup birth weight) / maternal stress induced preterm birth (gestational length): 0.5 mg/kg daily i.p. GD14 to GD18, restraint stress GD8-GD18, vs placebo
# Procedure: (§1) Wild-type adult female mice were mated with adult males by housing 1:1 for 4 h (9.00 am-1.00 pm). Pregnancy was confirmed by observing vaginal plug and the presence of sperm in vaginal smears, which was designated as gestation day (GD) 0 dpc (10.00 am). Time-mated pregnant mice were randomly assigned into non-stress or restraint stress (ST) groups. Restraint stress was administered in three sessions for 1 h using standard restraint chambers starting on GD 8 through GD 18, while the control group was left undisturbed during pregnancy. Before first restrained stress administration, daily intraperitoneal injection of CC #1 (0.5 mg/kg) or CC #2 (0.5 mg/kg) or placebo (PBS) was administered in ST-mice from GD14 to GD 18. The timing of delivery was monitored. Pups weight, litter size, numbers of live and dead pups were recorded.
# as §1, with “Experimental design to test effects of CC #1 and CC #2 administration in maternal stress induced pregnant mice (FIG. 2). Wild-type adult” for “Wild-type adult”, “stress was performed in three” for “stress was administered in three”, “daily intraperitoneal (I.P.) injection of” for “daily intraperitoneal injection of”
smiles,measurement,setting,value
CC[C@@H]1C[C@H]2[C@@H]3CCC4=CC(=O)CC[C@@H]4[C@H]3CC[C@]2(C)[C@H]1C(=O)CO [Organon 2058],FKBP51 levels,[1],minimal stimulatory effects
"C[C@]12C[C@H](O)[C@H]3[C@@H](CCC4=CC(=O)CC[C@@]43C)[C@@H]1CC[C@@H]2C(=O)CO [corticosterone, Corticosterone]",gestational length,[2],did not shorten gestation
CN(C)c1ccc([C@H]2C[C@]3(C)[C@@H](CC[C@]3(O)CCCO)[C@@H]3CCC4=CC(=O)CCC4=C32)cc1 [ZK98299],parturition rate,[3],100%
CC(=O)O[C@]1(C(C)=O)CC[C@H]2[C@@H]3C[C@H](C)C4=CC(=O)CC[C@]4(C)[C@H]3CC[C@@]21C [medroxyprogesterone acetate],FKBP51 levels,[1],up-regulated
"CCCCCCCC/C(=C\CCCCCCCC(=O)O)[N+](=O)[O-] [CC #2, 10-nitro-9E-octadecenoic acid]",dexamethasone-induced FKBP51 protein levels,[4],inhibits dexamethasone-induced FKBP51 protein levels
same,litter size,[5],did not affect litter size
same,maternal stress induced fetal growth restriction (pup birth weight),[5],prevent maternal stress induced FGR
same,maternal stress induced preterm birth (gestational length),[5],prevent maternal stress induced PTB
"CCCCC/C=C/C=C1/C(=O)C=C[C@@H]1C/C=C\CCCC(=O)O [CC #1, 15-deoxy-Δ12,14-prostaglandin J2]",dexamethasone-induced FKBP51 protein levels,[4],inhibits dexamethasone-induced FKBP51 protein levels
same,litter size,[5],did not affect litter size
same,maternal stress induced fetal growth restriction (pup birth weight),[5],prevent maternal stress induced FGR
same,maternal stress induced preterm birth (gestational length),[5],prevent maternal stress induced PTB
"CCCCCCCC/C=C(\CCCCCCCC(=O)O)[N+](=O)[O-] [CC #3, 9-nitro-9E-octadecenoic acid]",dexamethasone-induced FKBP51 protein levels,[4],inhibits dexamethasone-induced FKBP51 protein levels
